Measurements published in patent US20240327381A1, “Compounds and Compositions for Selective Degradation of Engineered Proteins” (Celgene Corporation, priority 2023, published 2024).

What was measured:
[1] = molecular target: T1, IKZF1 ZNF2_ZNF3 Q1F degron-tagged CD19 CAR (Homo sapiens, UniProt Q13422, Q146F); assay: Degradation of Q1F degron-tagged CD19 CAR in Jurkat cells (flow cytometry of CAR levels); format: cell-based; details: for DC50: Jurkat cells expressing CD19 CAR tagged with IKZF1 ZNF2_ZNF3 Q1F, 18 hours at 37° C., CAR levels normalized to untreated cells, read-out: Q1F Jurkat IC50; for Dmax: Ymax is the % protein degraded, Jurkat cells expressing Q1F degron-tagged CD19 CAR, 18 hours, read-out: Q1F Jurkat-YMax
T1 construct: ZNF2_ZNF3 Q1F degron (GERPFFCNQCGASFTQKGNLLRHIKLHSGEKPFKCHLCNYACRRRDALTGHLRTHS); fused on or other part: anti-CD19 scFv, CD28 transmembrane domain, 4-1BB costimulatory domain, CD3 zeta signaling domain (the CAR that carries the degron), and Nluc
T1 sequence (Q13422 whole entry Q146F, the tested form may be a part): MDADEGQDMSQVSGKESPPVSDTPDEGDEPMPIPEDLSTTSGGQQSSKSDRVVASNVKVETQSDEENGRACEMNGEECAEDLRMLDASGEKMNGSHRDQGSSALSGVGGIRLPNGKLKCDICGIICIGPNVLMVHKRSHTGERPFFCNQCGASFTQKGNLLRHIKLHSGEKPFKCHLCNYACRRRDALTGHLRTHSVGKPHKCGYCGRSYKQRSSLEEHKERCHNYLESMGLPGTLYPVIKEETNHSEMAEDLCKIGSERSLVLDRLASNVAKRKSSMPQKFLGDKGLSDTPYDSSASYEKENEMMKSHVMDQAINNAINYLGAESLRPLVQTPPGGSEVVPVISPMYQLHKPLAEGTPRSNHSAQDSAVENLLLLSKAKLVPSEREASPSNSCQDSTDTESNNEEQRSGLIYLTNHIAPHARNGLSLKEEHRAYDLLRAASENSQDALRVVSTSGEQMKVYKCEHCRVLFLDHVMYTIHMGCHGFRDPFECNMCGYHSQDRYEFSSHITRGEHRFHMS
Text: Q1F degron-targeting compounds were screened in Jurkat cells engineered to express a IKZF1 ZNF2_ZNF3 Q1F. The cell line was generated with lentiviral vectors containing CD19 CARs tagged with IKZF1 ZNF2_ZNF3 QIF Nluc, which were transduced into Jurkat cells. The CD19 CAR comprised an anti-CD19 scFv, a CD28 transmembrane domain, a 4-1BB costimulatory domain, a CD3ζ signaling domain, and a ZNF2_ZNF3 Q1F degron (GERPFFCNQCGASFTQKGNLLRHIKLHSGEKPFKCHLCNYACRRRDALTGHLRTHS; SEQ ID NO: 1; Q1F substitution underlined). Transduced cells were treated with a titration of each small molecule or no drug and then incubated at 37° C. for 18 hours. Cells were washed and stained with appropriate staining reagent to measure CAR levels. The cells were incubated at 4° C. in the staining reagents for 20 mins and then washed 3 times before being read on the flow cytometer. CAR levels were normalized to cells that had not been treated with drug. EC50 and Ymin values were calculated using the resulting titration curve. This identified small molecules that potently degraded the Q1F degron-tagged CARs (Table 1).
(§1) To determine the EC50 value of a compound for the degradation of a given substrate (concentration of compound that achieves half the maximum degradation observed), a four-parameter logistic model (sigmoidal dose-response model) (FIT=(A+{(B−A)/1+[(C/x)D]})) where C is the inflection point (EC50), D is the […], and A and B are the low and high limits of the fit, respectively) was used. All substrate degradation curves were processed and evaluated using ActivityBase (IDBS), a data analysis software package. Ymax is the % protein degraded (Ymin=100−Ymax and is minimum percent protein remaining).

Helios = molecular target: T2, Helios (Homo sapiens, UniProt Q9UKS7); assay: Helios degradation in Jurkat/Helios/HiBit cells (Nano-Glo luminescence); format: cell-based; details: 18 hr, read-out: Helios Jurkat Hibit IC50
T2 construct: endogenous in cells; host or cells: Jurkat cells, CRISPR/Cas9 knock-in of HiBit at the IKZF2 locus
T2 sequence (Q9UKS7 whole entry): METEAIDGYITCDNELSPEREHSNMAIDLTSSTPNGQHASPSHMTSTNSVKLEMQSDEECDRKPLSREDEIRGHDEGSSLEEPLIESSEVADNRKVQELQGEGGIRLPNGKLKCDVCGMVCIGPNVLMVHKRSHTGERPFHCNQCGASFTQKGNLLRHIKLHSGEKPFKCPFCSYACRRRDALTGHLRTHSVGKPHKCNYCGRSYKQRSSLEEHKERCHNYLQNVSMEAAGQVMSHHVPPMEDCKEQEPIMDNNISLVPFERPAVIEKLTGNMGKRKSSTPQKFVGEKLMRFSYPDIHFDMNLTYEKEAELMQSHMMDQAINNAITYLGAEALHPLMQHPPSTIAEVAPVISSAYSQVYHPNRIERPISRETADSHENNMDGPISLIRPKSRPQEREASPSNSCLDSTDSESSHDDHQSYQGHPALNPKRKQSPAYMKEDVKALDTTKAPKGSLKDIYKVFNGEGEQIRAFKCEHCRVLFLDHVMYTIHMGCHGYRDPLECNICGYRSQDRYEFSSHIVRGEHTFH
T2 sequence (Q96SW2 whole entry, further chain): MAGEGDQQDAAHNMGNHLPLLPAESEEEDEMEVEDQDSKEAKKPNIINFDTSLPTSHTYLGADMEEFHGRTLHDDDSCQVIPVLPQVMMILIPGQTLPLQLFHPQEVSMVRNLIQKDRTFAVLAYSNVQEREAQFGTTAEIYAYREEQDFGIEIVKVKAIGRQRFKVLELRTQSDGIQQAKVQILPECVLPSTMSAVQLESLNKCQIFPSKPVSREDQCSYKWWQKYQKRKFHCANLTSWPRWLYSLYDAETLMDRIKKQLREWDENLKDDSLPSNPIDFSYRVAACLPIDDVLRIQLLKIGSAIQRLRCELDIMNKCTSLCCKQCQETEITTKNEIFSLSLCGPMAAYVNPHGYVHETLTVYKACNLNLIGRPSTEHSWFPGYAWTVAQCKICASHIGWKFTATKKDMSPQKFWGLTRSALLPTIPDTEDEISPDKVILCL
T2 sequence (Q16531 whole entry partner): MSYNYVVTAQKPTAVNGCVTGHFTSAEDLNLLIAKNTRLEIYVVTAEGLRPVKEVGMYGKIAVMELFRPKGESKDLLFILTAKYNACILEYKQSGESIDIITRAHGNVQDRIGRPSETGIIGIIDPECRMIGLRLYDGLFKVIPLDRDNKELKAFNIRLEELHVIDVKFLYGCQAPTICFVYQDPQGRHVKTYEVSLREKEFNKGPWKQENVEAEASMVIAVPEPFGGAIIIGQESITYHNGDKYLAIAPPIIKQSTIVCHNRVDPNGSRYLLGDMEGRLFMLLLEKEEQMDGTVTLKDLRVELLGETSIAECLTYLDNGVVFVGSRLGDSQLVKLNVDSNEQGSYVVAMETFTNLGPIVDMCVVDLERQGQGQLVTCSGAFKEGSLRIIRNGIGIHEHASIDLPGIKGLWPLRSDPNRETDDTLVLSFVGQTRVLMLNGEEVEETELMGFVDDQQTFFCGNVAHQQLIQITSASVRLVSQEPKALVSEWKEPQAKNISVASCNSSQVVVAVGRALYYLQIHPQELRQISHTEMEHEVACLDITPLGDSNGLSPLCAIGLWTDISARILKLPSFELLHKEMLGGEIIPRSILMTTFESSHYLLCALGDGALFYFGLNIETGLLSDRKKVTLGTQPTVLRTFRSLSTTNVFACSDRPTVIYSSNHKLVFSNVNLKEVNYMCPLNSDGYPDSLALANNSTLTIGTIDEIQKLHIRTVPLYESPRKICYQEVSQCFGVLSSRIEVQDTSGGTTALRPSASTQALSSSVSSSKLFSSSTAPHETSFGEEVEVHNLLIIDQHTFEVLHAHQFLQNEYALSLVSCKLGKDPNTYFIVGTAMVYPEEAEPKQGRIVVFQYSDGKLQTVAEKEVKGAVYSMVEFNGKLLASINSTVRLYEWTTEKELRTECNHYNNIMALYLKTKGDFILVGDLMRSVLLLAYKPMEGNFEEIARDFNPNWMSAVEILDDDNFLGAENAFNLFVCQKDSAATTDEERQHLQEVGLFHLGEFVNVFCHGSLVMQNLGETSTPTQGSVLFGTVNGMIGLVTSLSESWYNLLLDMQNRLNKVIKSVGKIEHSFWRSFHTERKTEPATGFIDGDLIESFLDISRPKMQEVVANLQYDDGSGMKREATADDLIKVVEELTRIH
Procedure: For Helios, a stable Jurkat cell line was engineered using CRISPR/Cas9 to insert an in-frame HiBit tag into the carboxy-terminal reading frame of the IKZF2 gene. The sequence of human Helios is shown below:
Test compounds were transferred to 1536 well plates using an acoustic dispenser, and Jurkat/Helios/HiBit cells in DMEM/10% FCS were plated at 10,000 cells/well in a final volume of 5 μL. Cells were incubated at 37 C, 95% RH for 18 hr. Luciferase activity was measured by adding 2 μL/well of Nano-Glo reagent (Promega), incubating at RT for 30 min, and reading luminescence on a microtiter plate reader.
as §1

| SMILES | DC50 (Helios) [nM] | DC50 [1] [nM] | Dmax [1] [%] |
| --- | --- | --- | --- |
| O=C1CCC(N2Cc3c(cc(F)c(C4(O)CCN(Cc5ccc6ncsc6c5)CC4)c3F)C2=O)C(=O)N1 (centres unmarked) [Compound 12] | ≥ 10000 | 4.33 | 83.4 |
| Cc1cc(Br)cnc1CN1CCC(O)(c2c(F)cc3c(c2F)CN(C2CCC(=O)NC2=O)C3=O)CC1 (centres unmarked) [Compound 13, 3-(5-(1-((5-bromo-3-methylpyridin-2-yl)methyl)-4-hydroxypiperidin-4-yl)-4,6-difluoro-1-oxoisoindolin-2-yl)piperidine-2,6-dione] | ≥ 10000 | 86 | 62.4 |
| O=C1CCC(N2Cc3c(cc(F)c(C4(O)CCN(Cc5coc(-c6cccs6)n5)CC4)c3F)C2=O)C(=O)N1 (centres unmarked) [Compound 14, 3-(4,6-difluoro-5-(4-hydroxy-1-((2-(thiophen-2-yl)oxazol-4-yl)methyl)piperidin-4-yl)-1-oxoisoindolin-2-yl)piperidine-2,6-dione] | ≥ 10000 | 22.4 | 66.9 |
| O=C1CCC(N2Cc3c(cc(F)c(C4(O)CCN(Cc5cccc(-n6cccn6)c5)CC4)c3F)C2=O)C(=O)N1 (centres unmarked) [Compound 15, 3-(5-(1-(3-(1H-pyrazol-1-yl)benzyl)-4-hydroxypiperidin-4-yl)-4,6-difluoro-1-oxoisoindolin-2-yl)piperidine-2,6-dione] | ≥ 10000 | 4.94 | 79.9 |
| O=C1CCC(N2Cc3c(cc(F)c(C4(O)CCN(Cc5ccc(C(F)(F)F)cc5F)CC4)c3F)C2=O)C(=O)N1 (centres unmarked) [Compound 20, 3-(4,6-difluoro-5-(1-(2-fluoro-4-(trifluoromethyl)benzyl)-4-hydroxypiperidin-4-yl)-1-oxoisoindolin-2-yl)piperidine-2,6-dione] |  | 33.3 | 77.1 |
| O=C1CCC(N2Cc3c(cc(F)c(C4(O)CCN(Cc5cc(F)c(C(F)(F)F)cc5F)CC4)c3F)C2=O)C(=O)N1 (centres unmarked) [Compound 21, 3-(5-(1-(2,5-difluoro-4-(trifluoromethyl)benzyl)-4-hydroxypiperidin-4-yl)-4,6-difluoro-1-oxoisoindolin-2-yl)piperidine-2,6-dione] |  | 40.2 | 70.7 |
| COc1ccc(-n2cccn2)c(CN2CCC(O)(c3c(F)cc4c(c3F)CN(C3CCC(=O)NC3=O)C4=O)CC2)c1 (centres unmarked) [Compound 23, 3-(4,6-difluoro-5-(4-hydroxy-1-(5-methoxy-2-(1H-pyrazol-1-yl)benzyl)piperidin-4-yl)-1-oxoisoindolin-2-yl)piperidine-2,6-dione] |  | 279 | 51.6 |
| O=C1CCC(N2Cc3c(cc(F)c(C4(O)CCN(Cc5ncccc5Br)CC4)c3F)C2=O)C(=O)N1 (centres unmarked) [Compound 24, 3-(5-(1-((3-bromopyridin-2-yl)methyl)-4-hydroxypiperidin-4-yl)-4,6-difluoro-1-oxoisoindolin-2-yl)piperidine-2,6-dione] |  | 101 | 57.3 |
| COc1ccnc(CN2CCC(O)(c3c(F)cc4c(c3F)CN(C3CCC(=O)NC3=O)C4=O)CC2)c1 (centres unmarked) [Compound 25, 3-(4,6-difluoro-5-(4-hydroxy-1-((4-methoxypyridin-2-yl)methyl)piperidin-4-yl)-1-oxoisoindolin-2-yl)piperidine-2,6-dione] |  | 48.2 | 67.4 |
| Cc1ccc(CN2CCC(O)(c3c(F)cc4c(c3F)CN(C3CCC(=O)NC3=O)C4=O)CC2)cc1 (centres unmarked) [Compound 27, 3-(4,6-difluoro-5-(4-hydroxy-1-(4-methylbenzyl)piperidin-4-yl)-1-oxoisoindolin-2-yl)piperidine-2,6-dione] |  | 17.2 | 76.2 |
| CN(CCN1CCC(O)(c2c(F)cc3c(c2F)CN(C2CCC(=O)NC2=O)C3=O)CC1)Cc1ccccc1 (centres unmarked) [Compound 30, 3-(5-(1-(2-(benzyl(methyl)amino)ethyl)-4-hydroxypiperidin-4-yl)-4,6-difluoro-1-oxoisoindolin-2-yl)piperidine-2,6-dione] |  | 192 | 57.8 |

Continued, in another order:

| DC50 (Helios) [nM] | SMILES | DC50 [1] [nM] | Dmax [1] [%] |
| --- | --- | --- | --- |
| ≥ 10000 | C[C@@H](CO)CN1CCC(c2c(F)cc3c(c2F)CN(C2CCC(=O)NC2=O)C3=O)CC1 (mixture of isomers) [Compound 119, rac-3-(4,6-difluoro-5-(1-((R)-3-hydroxy-2-methylpropyl)piperidin-4-yl)-1-oxoisoindolin-2-yl)piperidine-2,6-dione] | 8.65 | 80.7 |
| ≥ 10000 | Cn1cncc1CN1CCC(c2c(F)cc3c(c2F)CN(C2CCC(=O)NC2=O)C3=O)CC1 (centres unmarked) [Compound 1, 3-(4,6-difluoro-5-(1-((1-methyl-1H-imidazol-5-yl)methyl)piperidin-4-yl)-1-oxoisoindolin-2-yl)piperidine-2,6-dione] | 10.4 | 85.3 |
| ≥ 10000 | O=C1CCC(N2Cc3c(cc(F)c(C4CCN(Cc5ccc(F)cc5)CC4)c3F)C2=O)C(=O)N1 (centres unmarked) [Compound 2, 3-(4,6-difluoro-5-(1-(4-fluorobenzyl)piperidin-4-yl)-1-oxoisoindolin-2-yl)piperidine-2,6-dione] | 1.43 | 88.8 |
| ≥ 10000 | O=C1CCC(N2Cc3c(cc(F)c(C4CCN(C5CCC5)CC4)c3F)C2=O)C(=O)N1 (centres unmarked) [Compound 3, 3-(5-(1-cyclobutylpiperidin-4-yl)-4,6-difluoro-1-oxoisoindolin-2-yl)piperidine-2,6-dione] | 4.37 | 78.7 |
| ≥ 10000 | Cc1cc(CN2CCC(c3c(F)cc4c(c3F)CN(C3CCC(=O)NC3=O)C4=O)CC2)on1 (centres unmarked) [Compound 4, 3-(4,6-difluoro-5-(1-((3-methylisoxazol-5-yl)methyl)piperidin-4-yl)-1-oxoisoindolin-2-yl)piperidine-2,6-dione] | 105 | 82.3 |
| ≥ 10000 | O=C1CCC(N2Cc3c(cc(F)c(C4CCN(Cc5ccc(-c6ccccc6)o5)CC4)c3F)C2=O)C(=O)N1 (centres unmarked) [Compound 5, 3-(4,6-difluoro-1-oxo-5-(1-((5-phenylfuran-2-yl)methyl)piperidin-4-yl)isoindolin-2-yl)piperidine-2,6-dione] | 5.7 | 85.8 |
| ≥ 10000 | O=C1CCC(N2Cc3c(cc(F)c(C4CCN(Cc5ccsc5)CC4)c3F)C2=O)C(=O)N1 (centres unmarked) [Compound 6, 3-(4,6-difluoro-1-oxo-5-(1-(thiophen-3-ylmethyl)piperidin-4-yl)isoindolin-2-yl)piperidine-2,6-dione] | 5 | 89.1 |
| ≥ 10000 | O=C1CCC(N2Cc3c(cc(F)c(C4CCN(CC5CCOC5)CC4)c3F)C2=O)C(=O)N1 (centres unmarked) [Compound 7, 3-(4,6-difluoro-1-oxo-5-(1-((tetrahydrofuran-3-yl)methyl)piperidin-4-yl)isoindolin-2-yl)piperidine-2,6-dione] | 0.265 | 86.2 |
| ≥ 10000 | O=C1CCC(N2Cc3c(cc(F)c(C4CCN(Cc5ccc(-n6ccnc6)cc5)CC4)c3F)C2=O)C(=O)N1 (centres unmarked) [Compound 8, 3-(5-(1-(4-(1H-imidazol-1-yl)benzyl)piperidin-4-yl)-4,6-difluoro-1-oxoisoindolin-2-yl)piperidine-2,6-dione] | 4.97 | 91.7 |
| ≥ 10000 | O=C1CCC(N2Cc3c(cc(F)c(C4CCN(Cc5ccnn5-c5ccccc5)CC4)c3F)C2=O)C(=O)N1 (centres unmarked) [Compound 9, 3-(4,6-difluoro-1-oxo-5-(1-((1-phenyl-1H-pyrazol-5-yl)methyl)piperidin-4-yl)isoindolin-2-yl)piperidine-2,6-dione] | 2.74 | 89.1 |
| ≥ 10000 | O=C1CCC(N2Cc3c(cc(F)c(C4CCN(CC(c5ccccc5)c5ccccc5)CC4)c3F)C2=O)C(=O)N1 (centres unmarked) [Compound 10, 3-(5-(1-(2,2-diphenylethyl)piperidin-4-yl)-4,6-difluoro-1-oxoisoindolin-2-yl)piperidine-2,6-dione] | 0.202 | 90.7 |
